Test results from US4916069A, “Enzyme and process for producing the same” (priority 1986, dated 1990).

Assays:
Assay type in all cases: biochemical, Gluconobacter oxydans UV-10
L-sorbose dehydrogenase [1] = target: T1, L-sorbose dehydrogenase (Gluconobacter oxydans, UniProt Q47944); settings: 0.1 ml of 1M substrate solution instead of L-sorbose, DCIP, 25° C., pH 7.0
Description: (§1) Enzyme assay was performed at 25° C. by measuring the decrease of absorbance at 600 nm of DCIP spectrophotometrically. One unit of enzyme activity was defined as the amount of enzyme which catalyzed the reduction of 1 μmole of DCIP per minute. The extinction coefficient of DCIP at pH 7.0 was taken as 14.5 mM^-1. The basal reaction mixture is shown below. The mixture was prepared just before the assay.
(§2) A cuvette with 1 cm light path contained 0.4 ml of basal mixture, 0.1 ml of 1M L-sorbose, enzyme solution, and water in a final volume of 0.51 ml. A reference cuvette contains all components except the substrate. The reaction was initiated by the addition of the substrate. Enzyme activity was measured as the initial reduction rate of DCIP.
Substrate specificity of the enzyme was determined using the same enzyme assay method as described in the above (1) except that 0.1 ml of each of the various substrate solutions (1M) was used instead of L-sorbose.

L-sorbose dehydrogenase [2] = target: T1, L-sorbose dehydrogenase; assay: Effect of metal ions on the enzyme activity; settings: for Effect of metal ion on the enzyme activity (in words): summary of Table 6
Description: as §1, §2
Using the assay procedure described under (1) above, the effect of various metal ions on the enzyme activity was examined. Co^2+ and Fe^3+ were stimulative and Cu^2+ was inhibitory.

L-sorbose dehydrogenase [3] = target: T1, L-sorbose dehydrogenase; assay: biochemical; settings: for Effect of inhibitor on the enzyme activity (in words): summary of Table 7
Description: as §1, with “The extinction coefficient of DCIP at pH 7.0 was taken as 14.5 mM^-1.” left out
as §2

L-sorbose dehydrogenase [4] = target: T1, L-sorbose dehydrogenase; assay: Measurement of the Km value for L-sorbose; settings: L-sorbose 0.5 mM to 320 mM
Description: as §1, §2
In the procedure described under (2) above, the velocities of oxidising reactions with varying concentrations of L-sorbose from 0.5 mM to 320 mM were measured to determine the Km value for L-sorbose. The maximum reaction velocity was found at the substrate concentration of about 200 mM. Apparent Michaelis constant (Km) was calculated to be 102±10 mM with DCIP as an electron acceptor.

T1 sequence (Q47944 whole entry): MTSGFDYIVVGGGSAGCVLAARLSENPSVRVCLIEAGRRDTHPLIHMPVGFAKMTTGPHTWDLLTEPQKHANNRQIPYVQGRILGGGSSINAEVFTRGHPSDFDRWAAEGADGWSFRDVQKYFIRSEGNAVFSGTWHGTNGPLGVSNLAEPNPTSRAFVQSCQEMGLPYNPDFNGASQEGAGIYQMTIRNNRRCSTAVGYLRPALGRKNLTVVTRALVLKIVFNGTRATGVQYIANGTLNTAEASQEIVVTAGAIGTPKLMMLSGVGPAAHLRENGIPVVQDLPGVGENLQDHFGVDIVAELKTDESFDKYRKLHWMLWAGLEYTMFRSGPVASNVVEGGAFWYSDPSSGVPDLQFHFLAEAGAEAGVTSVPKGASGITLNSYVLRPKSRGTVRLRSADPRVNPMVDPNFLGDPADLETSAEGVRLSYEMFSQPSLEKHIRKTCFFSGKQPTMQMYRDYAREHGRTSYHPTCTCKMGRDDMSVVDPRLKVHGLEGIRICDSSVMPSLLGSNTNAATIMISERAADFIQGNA

## O=C([O-])[C@@H](O)[C@H](O)[C@@H](O)[C@H](O)CO.O=C([O-])[C@@H](O)[C@H](O)[C@@H](O)[C@H](O)CO.[Ca+2] [Ca-Idonate]
L-sorbose dehydrogenase [1]
  Relative enzyme activity (%): 0%

## [Ca+2].[Cl-].[Cl-] [CaCl2]
L-sorbose dehydrogenase [2]; metal 0.4 mM
  Relative activity (%): 100%
L-sorbose dehydrogenase [2]; metal 0.8 mM
  Relative activity (%): 100%

## O.O.O.O.O.O.[Cl-].[Cl-].[Co+2] [CoC1 · 6H2O]
L-sorbose dehydrogenase [2]; metal 0.4 mM
  Relative activity (%): 109.2%
L-sorbose dehydrogenase [2]; metal 0.8 mM
  Relative activity (%): 118.4%

## [Co+2] [Co^2+]
L-sorbose dehydrogenase [2]
  Effect of metal ion on the enzyme activity (in words): stimulative

## O.O=[N+]([O-])[O-].O=[N+]([O-])[O-].[Cu+2] [Cu(NO3)2 · H2 O]
L-sorbose dehydrogenase [2]; metal 0.3 mM
  Relative activity (%): 2.27%

## O.O.[Cl][Cu][Cl] [CuCl2 · 2H2 O]
L-sorbose dehydrogenase [2]; metal 0.4 mM
  Relative activity (%): 0%

## O.O.O.O.O.O=S(=O)([O-])[O-].[Cu+2] [CuSO4 · 5H2 O]
L-sorbose dehydrogenase [2]; metal 0.08 mM
  Relative activity (%): 30.9%

## O=S(=O)([O-])[O-].[Cu+2] [CuSO4]
L-sorbose dehydrogenase [2]; metal 0.8 mM
  Relative activity (%): 0%

## [Cu+2] [Cu^2+]
L-sorbose dehydrogenase [2]
  Effect of metal ion on the enzyme activity (in words): inhibitory

## O=C(O)CN(CCN(CC(=O)O)CC(=O)O)CC(=O)O [EDTA]
L-sorbose dehydrogenase [3]
  inhibition at 940 µM: 0%
  inhibition at 5200 µM: 13.3%

## [Fe+3] [Fe^3+]
L-sorbose dehydrogenase [2]
  Effect of metal ion on the enzyme activity (in words): stimulative

## O.O.O.O.O.O.[Cl-].[Cl-].[Mg+2] [MgCl2 · 6H2 O]
L-sorbose dehydrogenase [2]; metal 0.8 mM
  Relative activity (%): 83.3%

## O.O.O.O.O.O.O.O=S(=O)([O-])[O-].[Mg+2] [MgSO4 · 7H2 O]
L-sorbose dehydrogenase [2]; metal 0.4 mM
  Relative activity (%): 100%
L-sorbose dehydrogenase [2]; metal 0.8 mM
  Relative activity (%): 100%

## O.O.O.O.[Cl][Mn][Cl] [MnCl2 · 4H2 O]
L-sorbose dehydrogenase [2]; metal 0.4 mM
  Relative activity (%): 100%
L-sorbose dehydrogenase [2]; metal 0.9 mM
  Relative activity (%): 98.3%

## O.O=S(=O)([O-])[O-].[Mn+2] [MnSO4 · H2 O]
L-sorbose dehydrogenase [2]; metal 0.4 mM
  Relative activity (%): 100%

## O=C(O)CI [Mono-Iodo acetate]
L-sorbose dehydrogenase [3]
  inhibition at 1850 µM: 0%
  inhibition at 4240 µM: 34.6%
  inhibition at 9370 µM: 68.5%
  Effect of inhibitor on the enzyme activity (in words): inhibited the enzyme activity partially

## CCN1C(=O)C=CC1=O [N-Ethyl-maleimide]
L-sorbose dehydrogenase [3]
  inhibition at 1850 µM: 0%
  inhibition at 4240 µM: 0%

## O.O.O.O.O.O.O.O=[As]([O-])([O-])O.[Na+].[Na+] [Na2 HAs · O4 · 7H2 O]
L-sorbose dehydrogenase [3]; inhibitor 1.85 mM
  Inhibition (%): 0%
L-sorbose dehydrogenase [3]; inhibitor 4.24 mM
  Inhibition (%): 0%

## O.O.[Na+].[Na+].[O]=[Mo](=[O])([O-])[O-] [Na2 MoO4 · 2H2 O]
L-sorbose dehydrogenase [2]; metal 0.3 mM
  Relative activity (%): 86.1%
L-sorbose dehydrogenase [2]; metal 1.06 mM
  Relative activity (%): 69.6%

## O.O.O.O.O.O.O=S(=O)([O-])[O-].[Ni+2] [NiSO4 · 6H2 O]
L-sorbose dehydrogenase [2]; metal 0.4 mM
  Relative activity (%): 100%
L-sorbose dehydrogenase [2]; metal 0.9 mM
  Relative activity (%): 100%

## O=C(O)c1cc[c]([Hg][Cl])cc1 [PCMB, p-chloro-mercuri-benzoate]
L-sorbose dehydrogenase [3]; inhibitor 0.02 mM
  Inhibition (%): 0%
L-sorbose dehydrogenase [3]; inhibitor 0.04 mM
  Inhibition (%): 0%
L-sorbose dehydrogenase [3]; inhibitor 0.17 mM
  Inhibition (%): 0%

## C=C[C@H]1C[N@@]2CC[C@H]1C[C@H]2[C@H](O)c1ccnc2ccc(OC)cc12 [Quinine]
L-sorbose dehydrogenase [3]
  inhibition at 1850 µM: 0%
  inhibition at 4240 µM: 30.5%
  Effect of inhibitor on the enzyme activity (in words): inhibited the enzyme activity partially

## [N-]=[N+]=[N-] [Sodium Azide]
L-sorbose dehydrogenase [3]
  inhibition at 1850 µM: 0%
  inhibition at 4240 µM: 0%

## [F-].[Na+] [Sodium Fluoride]
L-sorbose dehydrogenase [3]; inhibitor 1.85 mM
  Inhibition (%): 10.3%
L-sorbose dehydrogenase [3]; inhibitor 4.24 mM
  Inhibition (%): 10.3%
L-sorbose dehydrogenase [3]; inhibitor 9.37 mM
  Inhibition (%): 22.1%
L-sorbose dehydrogenase [3]
  Effect of inhibitor on the enzyme activity (in words): inhibited the enzyme activity partially

## O=C(O)CF [Sodium Fluoro acetate]
L-sorbose dehydrogenase [3]
  inhibition at 1850 µM: 0%
  inhibition at 4240 µM: 8.6%
  inhibition at 9370 µM: 26.5%
  Effect of inhibitor on the enzyme activity (in words): inhibited the enzyme activity partially

## O=C(CO)[C@@H](O)[C@H](O)[C@@H](O)CO [Sorbose, L-sorbose]
L-sorbose dehydrogenase [4]
  Substrate concentration of maximum reaction velocity: about 200 mM

## O.O.O.O.O.O.O.O=S(=O)([O-])[O-].[Zn+2] [ZnSO4 · 7H2 O]
L-sorbose dehydrogenase [2]; metal 0.4 mM
  Relative activity (%): 100%
L-sorbose dehydrogenase [2]; metal 0.9 mM
  Relative activity (%): 100%

## Fe(SO4)3 .multidot. xH2 O
L-sorbose dehydrogenase [2]; metal 0.4 mM
  Relative activity (%): 121.3%
L-sorbose dehydrogenase [2]; metal 0.9 mM
  Relative activity (%): 106.4%

## TiCl
L-sorbose dehydrogenase [2]; metal 0.4 mM
  Relative activity (%): 100%
L-sorbose dehydrogenase [2]; metal 0.8 mM
  Relative activity (%): 100%
L-sorbose dehydrogenase [2]; metal 1.8 mM
  Relative activity (%): 100%
